The text below walks through data of BindingDB's records for doi:10.1016/0960-894X(95)00398-D (1995).

The structures appear in SMILES notation.

In this assay the target is Beta-2 adrenergic receptor (Rattus norvegicus) (UniProt P10608). The assay can be described thus: Compound was evaluated for its binding affinity to beta-2 receptor in rat brain using [3H]- DHA radioligand assay.

The term Ki denotes a measure of affinity in units of concentration, obtained from inhibition or displacement.

Chain of Beta-2 adrenergic receptor (Rattus norvegicus) (P10608 whole entry, looked up): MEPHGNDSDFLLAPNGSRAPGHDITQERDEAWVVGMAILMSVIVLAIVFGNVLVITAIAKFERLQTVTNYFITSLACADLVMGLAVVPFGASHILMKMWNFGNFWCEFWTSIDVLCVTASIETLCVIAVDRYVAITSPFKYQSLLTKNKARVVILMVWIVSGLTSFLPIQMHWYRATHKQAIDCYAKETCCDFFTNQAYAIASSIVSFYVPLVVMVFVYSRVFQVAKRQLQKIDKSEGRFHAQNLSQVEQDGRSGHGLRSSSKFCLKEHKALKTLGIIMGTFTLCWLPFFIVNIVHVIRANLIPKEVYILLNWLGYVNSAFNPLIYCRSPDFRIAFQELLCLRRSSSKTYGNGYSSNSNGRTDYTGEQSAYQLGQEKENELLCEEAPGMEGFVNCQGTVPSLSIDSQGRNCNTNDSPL

For `COc1cccc2c1CCC[C@H]2CN(C)CCc1ccc2ccoc2c1` [A-80426], the Ki was 1.74 µM.
